Assay [1] addresses T1, angiotensin-converting enzyme 2 (ACE2) (Homo sapiens, UniProt Q9BYF1). The assay can be described thus: SPR. The class given is binding.
Assay [2] addresses T1, angiotensin-converting enzyme 2 (ACE2). The assay can be described thus: SPR. The class given is binding. The source holds these as a separate data set.

Structures are written as SMILES. pKd: −log10 of the molar value. Read-outs that look alike come from different tables or passages of the source.

T1 sequence (Q9BYF1 18-805): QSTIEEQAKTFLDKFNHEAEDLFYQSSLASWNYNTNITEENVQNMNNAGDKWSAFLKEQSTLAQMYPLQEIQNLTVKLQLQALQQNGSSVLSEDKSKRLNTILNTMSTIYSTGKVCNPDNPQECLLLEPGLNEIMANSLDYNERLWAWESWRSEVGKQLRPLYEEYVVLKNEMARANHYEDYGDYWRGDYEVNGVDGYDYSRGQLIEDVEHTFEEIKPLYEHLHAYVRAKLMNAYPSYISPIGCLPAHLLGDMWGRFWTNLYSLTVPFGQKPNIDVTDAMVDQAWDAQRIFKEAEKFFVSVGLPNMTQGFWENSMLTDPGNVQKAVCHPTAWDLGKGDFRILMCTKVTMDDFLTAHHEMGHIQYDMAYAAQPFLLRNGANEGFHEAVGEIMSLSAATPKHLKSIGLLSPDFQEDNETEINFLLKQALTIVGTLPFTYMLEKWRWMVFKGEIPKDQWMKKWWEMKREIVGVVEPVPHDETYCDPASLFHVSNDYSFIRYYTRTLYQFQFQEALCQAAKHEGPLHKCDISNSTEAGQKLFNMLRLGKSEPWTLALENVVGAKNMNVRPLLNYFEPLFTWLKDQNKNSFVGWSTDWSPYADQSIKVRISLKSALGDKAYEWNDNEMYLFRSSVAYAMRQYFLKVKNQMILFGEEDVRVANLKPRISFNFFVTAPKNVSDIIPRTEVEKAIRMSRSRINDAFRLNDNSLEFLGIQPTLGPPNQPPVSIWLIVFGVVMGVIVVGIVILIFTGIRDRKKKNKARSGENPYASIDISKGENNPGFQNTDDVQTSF

In the case of `CC(C)C[C@H](N[C@@H](Cc1cncn1Cc1cc(Cl)cc(Cl)c1)C(=O)O)C(=O)O` [MLN-4760], in assay [1], the negative-log Kd (pKd) was 4.18. The compound `CC1=CC(=O)C(C(C)C)=CC1=O` [thymoquinone] had a pKd in assay [2] of 4.49.

Broadly, the pKd is the Kd on a negative log10 scale, so that one unit is a factor of ten. Higher therefore signals a low Kd.

These data come from article PMC7853165 (Infectious Diseases and Therapy, 2021).
